Our source for the melting point and IC50 values is patent publication US6407104B1, “Pyrrolo[1,2-a]pyrazine spla2 inhibitor” (Shionogi & Co., Ltd., priority 1998, dated 2002).

pIC50: −log10 of the molar value. Counter-ions that a name gives are not always drawn.

Data set [1] concerns the target T1, recombinant human secretory phospholipase A2 (Homo sapiens, UniProt P14555).
T1 sequence (P14555 21-144): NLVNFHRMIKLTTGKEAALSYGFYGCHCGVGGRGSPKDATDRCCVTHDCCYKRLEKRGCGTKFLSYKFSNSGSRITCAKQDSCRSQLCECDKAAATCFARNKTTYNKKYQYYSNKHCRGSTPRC
Nature of the data set: Inhibition Test of Human Secretory Phospholipase A2 (chromogenic assay). Format: biochemical. The note with it: sPLA2 50 ng/well, 40° C., 30 minutes, OD 405 nm, 96 well microtiterplate. The source says: Test Example: Inhibition Test of Human Secretory Phospholipase A2
In order to identify and evaluate an inhibitor of recombinant human secretory phospholipase A2, the following chromogenic assay is utilized. The assay herein has been applied for high volume screening wherein 96 well microtiterplate is used. A general explanation for such assay is described in “Analysis of Human Synovial Fluid Phospholipase A2 on Short Chain Phosphatidylcholine-Mixed Micelles: Development of a Spectrophotometric Assay Suitable for a Micortiterplate Reader” (Analytical Biochemistry, 204, pp 190-197, 1992 by Laure. J. Reynolds. Lori L. Hughes and Edward A. Dennis: the disclosure of which is incorporated herein for reference.
pH 7.5 (adjusted with NaOH)
pH 4.5 (adjusted with acetic acid)
1 mg of sPLA2 is dissolved in 1 ml of an enzyme buffer. Thereafter, the solution is maintained at 4° C.
In the assay, 5 μl of the solution is diluted with 1995 μl of the reaction buffer to be used.
198 mg of 5,5′-dithiobis-2-[…] (manufactured by Wako Pure Chemicals) is dissolved in 100 ml of H2O
H 7.5 (adjusted with NaOH)
100 mg of racemic 1,2-bis(heptanoylthio)-1,2-dideoxy-sn-glycero-3-phospholylcholine is dissolved in 1 ml of chloroform.
624.9 mg of Triton-X 100 is dissolved in the reaction buffer.
Enzyme Reaction: for 1 Plate of Microtiterplate
1) 0.106 ml of the substrate solution is put in a centrifugal tube, and nitrogen gas is jetted to remove the solvent. 0.54 ml of Triton-X 100 is added thereto, the mixture is stirred, thereafter it is sonified in a bath type sonification to dissolve. To the resulting product are added 17.8 ml of the reaction buffer and 0.46 ml of DTNB, and 0.18 ml each of the admixture is poured to wells of the 96 well microtiterplate.
2) 10 μl of a test compound (or solvent blank) are added in accordance with alignment of plates which has been previously set.
3) Incubation is effected at 40° C. for 15 minutes.
4) 20μl of an enzyme solution (sPLA2) which has been previously diluted (50 ng/well) are added to start reaction (40° C., 30 minutes).
5) Changes in absorbancy for 30 minutes are measured by a plate reader, and inhibition activity was calculated (OD: 405 nm).
6) IC50 was determined by plotting log concentration with respect to inhibition values within 10% to 90% inhibiting range.

Consider `CCc1c(C(=O)C(N)=O)c2c(OCC(=O)O)nc(C)cn2c1Cc1ccc(F)cc1` (as salt: Na) [Compound I-99], for which the melting point lay within 250 to 265 °C.
Same read-out and setting: next, `CCc1c(C(=O)C(N)=O)c2c(OCC(=O)O)nc(C)cn2c1Cc1ccccc1-c1ccsc1` (as salt: Na) [Compound I-102]: 260 to 263 °C.
On to `CCc1c(C(=O)C(N)=O)c2c(OCC(=O)OC)nccn2c1Cc1ccccc1` [Compound I-1], for which the melting point lay within 151 to 152 °C. For the same compound, in data set [1], the pIC50 is 6.68.
On to `CCc1c(C(=O)C(N)=O)c2c(OCC(=O)O)nccn2c1Cc1ccccc1` [Compound I-2, [6-Benzyl-7-ethyl-8-oxamoylpyrrolo[1,2-a]pyrazin-1-yl]oxyacetic acid], for which the negative-log IC50 (pIC50) in data set [1] is 7.96.
As to `COC(=O)COc1nccn2c(Cc3ccccc3)c(C3CC3)c(C(=O)C(N)=O)c12` [Compound I-3], the melting point was in the range of 177 to 179 °C. In data set [1], the pIC50 is 5.58.
In the same order, the values of `NC(=O)C(=O)c1c(C2CC2)c(Cc2ccccc2)n2ccnc(OCC(=O)O)c12` [Compound I-4] are 189 to 191 °C and 7.46.
In the same order, the values of `CCc1c(C(=O)C(N)=O)c2c(OCC(=O)OC)nccn2c1Cc1cccs1` [Compound I-5] are 165 to 166 °C and 6.50.
In the same order, the values of `CCc1c(C(=O)C(N)=O)c2c(OCC(=O)O)nccn2c1Cc1cccs1` [Compound I-6] are 225 to 227 °C and 8.05.
Consider `CCc1c(C(=O)C(N)=O)c2c(OCC(=O)OC)nccn2c1CC1CCCCC1` [Compound I-7], for which the melting point was 162 to 163 °C. Moreover, in data set [1], the pIC50 was 6.41.
Compound `CCc1c(C(=O)C(N)=O)c2c(OCC(=O)O)nccn2c1CC1CCCCC1` [Compound I-8] came in with a melting point of 205 to 206 °C. Besides, the pIC50 in data set [1] is 7.96.
In the same order, the values of `CCc1c(C(=O)C(N)=O)c2c(OCC(=O)OC)nccn2c1Cc1cccc(OC)c1` [Compound I-9] are 154 to 155 °C and 6.36.
In the same order, the values of `CCc1c(C(=O)C(N)=O)c2c(OCC(=O)O)nccn2c1Cc1cccc(OC)c1` [Compound I-10] are 196 to 197.5 °C and 7.85.
In the same order, the values of `CCc1c(C(=O)C(N)=O)c2c(OCC(=O)OC)nccn2c1Cc1ccc2ccsc2c1` [Compound I-11] are 144 to 148 °C and 6.71.
`CCc1c(C(=O)C(N)=O)c2c(OCC(=O)O)nccn2c1Cc1ccc2ccsc2c1` [Compound I-12] displayed a melting point of 209 to 211 °C. For the same compound, the negative logarithm of the IC50 (pIC50) in data set [1] is 8.00.
In the same order, the values of `COC(=O)COc1nccn2c(Cc3ccccc3)c(C)c(C(=O)C(N)=O)c12` [Compound I-13] are 182 to 183 °C and 6.80.
In the same order, the values of `Cc1c(C(=O)C(N)=O)c2c(OCC(=O)O)nccn2c1Cc1ccccc1` [Compound I-14] are 207 to 208 °C and 7.96.
`CCc1c(C(=O)C(N)=O)c2c(OCC(=O)OC)nccn2c1CC1CCCC1` [Compound I-15] displayed a melting point of 165 to 166 °C. For the same compound, the pIC50 in data set [1] is 6.29.
In the same order, the values of `CCc1c(C(=O)C(N)=O)c2c(OCC(=O)O)nccn2c1CC1CCCC1` [Compound I-16] are 203 to 205 °C and 8.22.
In the same order, the values of `CCc1c(C(=O)C(N)=O)c2c(OCC(=O)OC)nc(C)cn2c1Cc1ccccc1` [Compound I-17] are 192 to 194 °C and 6.76.
In the same order, the values of `CCc1c(C(=O)C(N)=O)c2c(OCC(=O)O)nc(C)cn2c1Cc1ccccc1` [Compound I-18, [6-Benzyl-7-ethyl-3-methyl-8-oxamoylpyrrolo[1,2-a]pyrazin-1-yl]oxyacetic acid] are 207 to 208 °C and 8.05.
`CCc1c(C(=O)C(N)=O)c2c(OCC(=O)OC)nc(C)cn2c1Cc1ccc(F)cc1` [Compound I-19] registered a melting point of 167 to 168 °C. Besides, the pIC50 in data set [1] is 6.25.
`CCc1c(C(=O)C(N)=O)c2c(OCC(=O)O)nc(C)cn2c1Cc1ccc(F)cc1` [Compound I-20] returned a melting point of 204 to 205 °C.
In turn, `CCc1c(C(=O)C(N)=O)c2c(OCC(=O)OC)nc(C)cn2c1Cc1ccccc1-c1ccccc1` [Compound I-21] came in with a melting point of 164.5 to 165.5 °C. Besides, the negative logarithm of the IC50 (pIC50) in data set [1] is 7.39.
In the same order, the values of `CCc1c(C(=O)C(N)=O)c2c(OCC(=O)O)nc(C)cn2c1Cc1ccccc1-c1ccccc1` [Compound I-22, [6-(2-Biphenylmethyl)-7-ethyl-3-methyl-8-oxamoylpyrrolo [1,2-a]pyrazin-1-yl]oxyacetic acid] are 192 to 194 °C and 8.10.
`CCc1c(C(=O)C(N)=O)c2c(OCC(=O)OC)nc(C)cn2c1CC1CCCC1` [Compound I-23] gave a melting point of 135 to 136.5 °C. The negative logarithm of the IC50 (pIC50) in data set [1] is 6.19.
The compound `CCc1c(C(=O)C(N)=O)c2c(OCC(=O)O)nc(C)cn2c1CC1CCCC1` [Compound I-24] displayed a melting point of 192 to 193 °C. The negative-log IC50 (pIC50) in data set [1] was 7.77.
In the same order, the values of `CCc1c(C(=O)C(N)=O)c2c(OCC(=O)OC)nc(C)cn2c1Cc1ccccc1F` [Compound I-25] are 187 to 188 °C and 6.71.
In the same order, the values of `CCc1c(C(=O)C(N)=O)c2c(OCC(=O)O)nc(C)cn2c1Cc1ccccc1F` [Compound I-26] are 218 to 219 °C and 7.92.
In the same order, the values of `CCc1c(C(=O)C(N)=O)c2c(OCC(=O)OC)nc(C)cn2c1Cc1ccccc1Cc1ccccc1` [Compound I-27] are 134.5 to 136 °C and 7.66.
`CCc1c(C(=O)C(N)=O)c2c(OCC(=O)O)nc(C)cn2c1Cc1ccccc1-c1cccs1` [Compound I-52, [7-Ethyl-3-methyl-8-oxamoyl-6-(2-(2-thienyl)benzyl)pyrrolo[1,2-a]pyrazin-1-yl]oxyacetic acid]: the pIC50 in data set [1] is 8.30.
Still for that read-out and setting: next, `CCc1c(C(=O)C(N)=O)c2c(OCC(=O)O)nc(C)cn2c1Cc1ccccc1C#Cc1ccccc1` [Compound I-54, [7-Ethyl-3-methyl-8-oxamoyl-6-(2-phenylethynylbenzyl)pyrrolo [1,2-a]pyrazin-1-yl]oxyacetic acid]: 8.22; `CCc1c(C(=O)C(N)=O)c2c(SCC(=O)O)nc(C)cn2c1Cc1ccccc1-c1ccc(F)cc1` [Compound I-58]: 7.60.
For the compound `COC(=O)COc1nc(C)c(Cc2ccc(F)cc2)n2cc(C)c(C(=O)C(N)=O)c12` [Compound I-59], the pIC50 in data set [1] is 4.80.
In the case of `Cc1cn2c(Cc3ccc(F)cc3)c(C)nc(OCC(=O)O)c2c1C(=O)C(N)=O` [Compound I-60], the pIC50 in data set [1] was 5.92.
Same read-out and setting: next, `CCc1c(C(=O)C(N)=O)c2c(OCC(=O)OC)nc(C)cn2c1Cc1ccccc1-c1cccnc1` [Compound I-65]: 5.81.
For the compound `CCc1c(C(=O)C(N)=O)c2c(OCC(=O)O)nc(C)cn2c1Cc1ccccc1-c1cccnc1` [Compound I-66], the negative logarithm of the IC50 (pIC50) in data set [1] is 7.35.
Same read-out and setting: next, `CCc1c(C(=O)C(N)=O)c2c(OCC(=O)OC)nc(C)cn2c1Cc1ccccc1-c1ccc(OC)cc1` [Compound I-67]: 7.24; `CCc1c(C(=O)C(N)=O)c2c(OCC(=O)O)nc(C)cn2c1Cc1ccccc1-c1ccc(OC)cc1` [Compound I-68]: 8.10.
With `CCc1c(C(=O)C(N)=O)c2c(OCC(=O)OCCN3CCOCC3)nc(C)cn2c1Cc1ccccc1-c1ccc(F)cc1` [Compound I-96], the negative logarithm of the IC50 (pIC50) in data set [1] is 7.11.
On the same count and under the same terms, next, `CCc1c(C(=O)C(N)=O)c2c(OCC(=O)OCCN3CCOCC3)nc(C)cn2c1Cc1ccccc1-c1cccs1` [Compound I-97]: 7.11; `CCc1c(C(=O)C(N)=O)c2c(OCC(=O)O)nc(C)cn2c1Cc1ccc(F)cc1` [Compound I-99]: 7.68; `CCc1c(C(=O)C(N)=O)c2c(OCC(=O)O)nc(C)cn2c1Cc1ccccc1-c1ccc(F)cc1` [Compound I-100]: 7.68.
On the same count and under the same terms, next, `CCc1c(C(=O)C(N)=O)c2c(OCC(=O)O)nc(C)cn2c1Cc1ccccc1-c1cccs1` [Compound I-101]: 7.72; `CCc1c(C(=O)C(N)=O)c2c(OCC(=O)O)nc(C)cn2c1Cc1ccccc1-c1ccsc1` [Compound I-102]: 7.70.
